Source: patent US10112968B2, “Inhibitors of protein methyltransferase DOT1L and methods of use thereof” (Epizyme, Inc., priority 2012, dated 2018)
“Also recorded” adds a separate entry of the source.

How the values were obtained:
[1] = tested on: other histone methyl marks; experiment: Effect on other histone methyl marks in cells; format: cell-based
MV4-11 xenograft tumors = experiment: MV4-11 nude rat subcutaneous xenograft model of MLL-rearranged leukemia; format: in vivo
Description: Four groups of 10 (Groups 1, 2, 3, and 4 female RH nu/nu rats (7 weeks old, weighing 120-160 g) bearing MV4-11 xenograft tumors of sizes ranging from 300-600 mm^3 were implanted with a catheter in the femoral vein). The infusion flow rate was set at 1,500 μL/hour/kg and was adjusted to the most recent mean body weight of each treatment group (as an example, the infusion flow rate was 300 μL/hour for a group of rats having a mean body weight of 200 g). Group 1 received vehicle via a 21-day continuous IV infusion. Group 2 received 21-day continuous IV infusion of the test substance at 35 mg/kg/day. Group 3 received a daily 8-hour continuous IV infusion of the test substance at 67 mg/kg/day for 21 consecutive days. Between two IV infusions of the test substance, the rats were kept under IV infusion with NaCl 0.9% solution. Group 4 received a 21-day continuous IV infusion of the test substance at 70 mg/kg/day. Syringes used for the IV infusion were replaced every day.
The rats were terminated when the subcutaneous tumor reached a maximum volume of 9,000 mm^3 or at a maximum of 55 days after tumor cells injection.

[2] = tested on: leukemia cell lines without the chromosomal rearrangement of the MLL gene; experiment: Antiproliferative effect on leukemia cell lines without MLL rearrangement; format: cell-based
[3] = tested on: MLL-rearranged leukemia cells; experiment: Cell killing in MLL-rearranged leukemia cells; format: cell-based
[4] = Pharmacokinetic half-life in systemic circulation, dogs; format: in vivo
H3K79 methylation = H3K79 methylation in treated leukemia cells; format: cell-based; settings: treatment of leukemia cells
[5] = Pharmacokinetic half-life in systemic circulation, rats; format: in vivo
DOT1L [6] = target: T1, DOT1L (Homo sapiens (Human), UniProt Q8TEK3); experiment: DOT1L enzymatic activity radiometric assay (methyl transfer from SAM to chicken erythrocyte nucleosomes); settings: for IC50: read-out: DOT1L IC50; for alpha: global fit
T1 sequence (Q8TEK3 whole entry): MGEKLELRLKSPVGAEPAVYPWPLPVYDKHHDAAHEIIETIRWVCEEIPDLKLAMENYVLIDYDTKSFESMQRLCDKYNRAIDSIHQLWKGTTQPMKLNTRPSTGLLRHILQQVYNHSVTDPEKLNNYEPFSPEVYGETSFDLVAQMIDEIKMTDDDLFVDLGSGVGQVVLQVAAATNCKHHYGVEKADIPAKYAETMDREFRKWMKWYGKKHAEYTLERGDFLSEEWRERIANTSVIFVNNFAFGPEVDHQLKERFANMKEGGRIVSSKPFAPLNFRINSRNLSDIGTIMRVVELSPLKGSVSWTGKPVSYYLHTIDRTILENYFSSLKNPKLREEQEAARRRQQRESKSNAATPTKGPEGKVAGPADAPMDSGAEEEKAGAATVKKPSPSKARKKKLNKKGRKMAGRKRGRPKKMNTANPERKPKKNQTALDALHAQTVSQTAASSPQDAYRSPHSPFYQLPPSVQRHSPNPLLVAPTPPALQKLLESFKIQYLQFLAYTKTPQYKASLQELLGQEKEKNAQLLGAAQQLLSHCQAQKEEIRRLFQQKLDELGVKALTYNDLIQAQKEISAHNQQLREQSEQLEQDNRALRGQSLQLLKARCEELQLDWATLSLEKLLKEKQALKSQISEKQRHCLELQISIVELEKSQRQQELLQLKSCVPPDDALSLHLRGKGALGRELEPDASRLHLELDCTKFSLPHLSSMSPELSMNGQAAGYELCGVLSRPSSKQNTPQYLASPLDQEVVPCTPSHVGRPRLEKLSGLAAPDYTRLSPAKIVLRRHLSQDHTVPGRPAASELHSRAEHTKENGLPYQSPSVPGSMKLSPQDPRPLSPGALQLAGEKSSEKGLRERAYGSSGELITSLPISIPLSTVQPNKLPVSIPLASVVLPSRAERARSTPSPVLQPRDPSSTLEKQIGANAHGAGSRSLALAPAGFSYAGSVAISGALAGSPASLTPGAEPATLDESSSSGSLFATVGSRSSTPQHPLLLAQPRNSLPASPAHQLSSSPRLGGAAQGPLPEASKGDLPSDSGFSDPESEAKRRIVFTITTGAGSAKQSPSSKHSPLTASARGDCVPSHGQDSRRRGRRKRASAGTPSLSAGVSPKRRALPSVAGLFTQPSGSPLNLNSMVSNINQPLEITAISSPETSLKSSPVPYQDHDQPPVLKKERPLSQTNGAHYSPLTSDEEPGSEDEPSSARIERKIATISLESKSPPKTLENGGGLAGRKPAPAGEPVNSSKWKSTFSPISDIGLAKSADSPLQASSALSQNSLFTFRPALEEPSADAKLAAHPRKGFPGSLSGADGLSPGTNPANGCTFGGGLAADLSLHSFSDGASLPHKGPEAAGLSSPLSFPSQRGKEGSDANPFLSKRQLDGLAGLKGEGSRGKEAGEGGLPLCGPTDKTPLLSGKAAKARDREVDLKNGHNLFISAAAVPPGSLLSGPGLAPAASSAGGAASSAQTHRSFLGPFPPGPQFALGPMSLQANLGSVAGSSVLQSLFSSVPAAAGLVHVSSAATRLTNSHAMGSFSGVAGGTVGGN

[7] = tested on: HOXA9 mRNA in MV4-11 cells; experiment: Quantitative real-time PCR analysis of HOXA9 message; settings: Homo sapiens, MV4-11, 144 h, read-out: Cellular IC50 HOXA9 mRNA
H3K79me2 in MV4-11 cells = experiment: H3K79me2 quantitative ELISA; settings: Homo sapiens, MV4-11, 96 h, read-out: Cellular IC50 H3K79 Methylation
DOT1L [8] = target: T1, DOT1L; experiment: Ligand association and dissociation rate constants by surface plasmon resonance (SPR); format: binding; settings: Kd calculated as koff/kon
MV4-11 cells = experiment: Cell proliferation assay (Guava Viacount, 14 days); format: cell-based; settings: Homo sapiens, 336 h, day 14, read-out: Cellular IC50 Proliferation
MLL-rearranged leukemia = experiment: Aggressive, disseminated mouse model of MLL-rearranged leukemia; format: in vivo; settings: as previously described

CC(C)N(C[C@H]1O[C@@H](n2cnc3c(N)ncnc32)[C@H](O)[C@@H]1O)[C@H]1C[C@@H](CCc2nc3cc(C(C)(C)C)ccc3[nH]2)C1 [Compound A2, (2R,3R,4S,5R)-2-(6-amino-9H-purin-9-yl)-5-((((1r,3S)-3-(2-(5-(tert-butyl)-1H-benzo[d]imidazol-2-yl)ethyl)cyclobutyl)(isopropyl)amino)methyl)tetrahydrofuran-3,4-diol]
effect on other histone methyl marks / methylation status of other histone sites [1]: without effect | anti-tumor activity (MV4-11 xenograft tumors; continuous intravenous infusion for 21 days, FIG. 1): dose-dependent anti-tumor activity; also recorded: complete and sustained tumor regression | time with no regrowth after the cessation of treatment (MV4-11 xenograft tumors; highest dose (70 mg/kg/day)): up to 32 days | tumor regressions (MV4-11 xenograft tumors; highest dose (70 mg/kg/day), 21-day continuous IV infusion): complete tumor regressions | weight loss or toxicity during efficacy study (MV4-11 xenograft tumors; rats): No significant weight loss or obvious toxicity | impact on non-rearranged cells [2]: minimal impact | cell killing [3]: selective, apoptotic cell killing | effective pharmacokinetic half-life in systemic circulation [4]: 90 min | H3K79 methylation (H3K79 methylation): concentration- and time-dependent diminution | effective pharmacokinetic half-life in systemic circulation [5]: 15 min

CC(C)N(C[C@H]1O[C@@H](n2cnc3c(N)ncnc32)[C@H](O)[C@@H]1O)[C@H]1C[C@@H](CCc2nc3cc(Cl)c(C(F)(F)F)cc3[nH]2)C1 [Compound A5, (2R,3R,4S,5R)-2-(6-amino-9H-purin-9-yl)-5-((((1r,3S)-3-(2-(5-chloro-6-(trifluoromethyl)-1H-benzo[d]imidazol-2-yl)ethyl)cyclobutyl)(isopropyl)amino)methyl)tetrahydrofuran-3,4-diol]
IC50 (DOT1L [6]): 0.59 nM

CC(C)N(C[C@H]1O[C@@H](n2ccc3c(N)ncnc32)[C@H](O)[C@@H]1O)[C@H]1C[C@H](CCc2nc3cc(C(C)(C)C)ccc3[nH]2)C1 [Compound A75, (2R,3R,4S,5R)-2-(4-amino-7H-pyrrolo[2,3-d]pyrimidin-7-yl)-5-((((1s,3R)-3-(2-(5-(tert-butyl)-1H-benzo[d]imidazol-2-yl)ethyl)cyclobutyl)(isopropyl)amino)methyl)tetrahydrofuran-3,4-diol]
IC50 (DOT1L [6]): 0.59 nM

CN(C[C@H]1O[C@@H](n2ccc3c(N)ncnc32)[C@H](O)[C@@H]1O)[C@H]1C[C@@H](CCc2nc3cc(C(C)(C)C)ccc3[nH]2)C1 [Compound A86, (2R,3R,4S,5R)-2-(4-amino-7H-pyrrolo[2,3-d]pyrimidin-7-yl)-5-((((1r,3S)-3-(2-(5-(tert-butyl)-1H-benzo[d]imidazol-2-yl)ethyl)cyclobutyl)(methyl)amino)methyl)tetrahydrofuran-3,4-diol]
IC50 (DOT1L [6]): 0.62 nM

CC(C)N(C[C@H]1O[C@@H](n2ccc3c(N)ncnc32)[C@H](O)[C@@H]1O)[C@H]1C[C@@H](CCc2nc3cc(OC(F)(F)F)ccc3[nH]2)C1 [Compound A87, (2R,3R,4S,5R)-2-(4-amino-7H-pyrrolo[2,3-d]pyrimidin-7-yl)-5-((isopropyl((1r,3S)-3-(2-(5-(trifluoromethoxy)-1H-benzo[d]imidazol-2-yl)ethyl)cyclobutyl)amino)methyl)tetrahydrofuran-3,4-diol]
IC50 (DOT1L [6]): 0.8 nM

CN(CCNC(=O)OCC1c2ccccc2-c2ccccc21)C[C@H]1OC(n2cnc3c(N)ncnc32)[C@H](O)[C@@H]1O (some centres unmarked) [Compound C64]
Ki (DOT1L [6]): 20000 nM

CN(CCNC(=O)Nc1ccc(C(C)(C)C)cc1)C[C@H]1O[C@@H](n2cnc3c(N)ncnc32)[C@H](O)[C@@H]1O [Compound C94]
IC50 [7]: > 50000 nM | IC50 (H3K79me2 in MV4-11 cells): 28000 ± 25000 nM | Ki (DOT1L [6]): 845 nM | Kd (DOT1L [8]): 167 ± 100 nM | IC50 (MV4-11 cells): > 50000 nM

CC(C)N(CCCNC(=O)Nc1ccc(C(C)(C)C)cc1)C[C@H]1OC(n2ccc3c(N)ncnc32)C(O)[C@@H]1O (some centres unmarked) [Compound D16]
IC50 [7]: 830 ± 170 nM | IC50 (H3K79me2 in MV4-11 cells): 5 ± 3 nM | inhibition modality with respect to SAM (DOT1L [6]): competitive inhibitor | inhibition modality with respect to nucleosome (DOT1L [6]): noncompetitive inhibitor | alpha (DOT1L [6]; FIG. 2A, varied SAM concentration): 10±6 | alpha (DOT1L [6]; FIG. 2B, varied oligonucleosome concentration): 0.5±0.2 | ΔΔGbinding (DOT1L [6]; between C118 and D16, at 25° C.): 2.4 to 2.9 kcal/mol | survival (MLL-rearranged leukemia): statistically significant survival advantage | IC50 (MV4-11 cells): 146 ± 72 nM
